Assay results taken from article PMC3894222 (PLoS Pathogens, 2014).

Tests used:
Sm5HTR [1] = target: T1, Sm5HTR (Schistosoma mansoni, UniProt G4V5G4); test: cAMP fluorescent competitive immunoassay, transfected HEK […] cells; type: cell-based; details: 20 uM forskolin, IBMX pretreatment, 37 °C, 10 min
T1 construct: gene 5HT-1; full length, 463 residues, 52 kDa; pCI-neo; transiently transfected HEK 293 cells
T1 sequence (G4V5G4 1-463): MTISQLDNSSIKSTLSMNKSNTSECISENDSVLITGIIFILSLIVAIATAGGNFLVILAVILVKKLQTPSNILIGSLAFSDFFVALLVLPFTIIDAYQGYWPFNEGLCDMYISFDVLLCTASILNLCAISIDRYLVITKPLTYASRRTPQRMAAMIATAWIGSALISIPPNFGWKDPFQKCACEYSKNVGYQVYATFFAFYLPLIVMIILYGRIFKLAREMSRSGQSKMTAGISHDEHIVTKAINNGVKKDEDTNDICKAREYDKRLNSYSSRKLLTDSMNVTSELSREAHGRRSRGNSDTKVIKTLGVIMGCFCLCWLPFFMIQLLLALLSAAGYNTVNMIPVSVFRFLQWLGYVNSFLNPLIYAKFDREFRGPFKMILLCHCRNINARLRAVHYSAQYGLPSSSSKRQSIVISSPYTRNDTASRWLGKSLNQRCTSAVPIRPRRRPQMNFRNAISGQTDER

Sm5HTR [2] = target: T1, Sm5HTR; test: as above; type: cell-based
[3] = antagonist at 100 uM against 100 uM serotonin

SMILES	cAMP fluorescent competitive immunoassay, transfected HEK 293 cells (Sm5HTR [1]; [3])	cAMP fluorescent competitive immunoassay, transfected HEK 293 cells (Sm5HTR [1]; agonist at 100 uM)	other results
CN1CCN2c3ccccc3Cc3ccccc3C2C1 (stereo not drawn) [MIAN, mianserin]	inhibited by co-application of common serotonergic antagonists such as cyproheptadine or mianserin		
O=C1CC2(CCCC2)CC(=O)N1CCCCN1CCN(c2ncccn2)CC1 [BUS, buspirone]		classical (i.e. mammalian) serotonergic agonists such as tryptamine, DPAT and buspiperone	
COc1ccc2[nH]cc(CCN)c2c1 [methyl-5HT, o-methyl-serotonin]			EC50 (Sm5HTR [2]): 0.0722 µM
CN1CCC(=C2c3ccccc3C=Cc3ccccc32)CC1 [CPH, cyproheptadine]	inhibited by co-application of common serotonergic antagonists such as cyproheptadine or mianserin		
CCCN(CCC)C1CCc2cccc(O)c2C1 (stereo not drawn) [DPAT, 8-Hydroxy-DPAT]		classical (i.e. mammalian) serotonergic agonists such as tryptamine, DPAT and buspiperone	
NCCc1c[nH]c2ccccc12 [Trp, tryptamine]		classical (i.e. mammalian) serotonergic agonists such as tryptamine, DPAT and buspiperone	
